Reference: patent publication US20050203174A1, “Combination therapies using leptomycin B” (Kosan Biosciences, Inc., priority 2004, published 2005)

Test system: colon cancer cell line DLD-1
Assay: Cell viability assay (CellTiter-Glo) and combination effect analysis of leptomycin B plus co-agent
Format: cell-based, Human
Conditions: combination with leptomycin B, DLD-1 cells, average CI over fraction affected 0.2 to 0.9; for Combination Index, LMB First: 24 hours of LMB, then drug added and incubated for 48 hours; for Combination Index, Co-Agent First: drug alone for 24 hours followed by addition of LMB for 48 hours; for Combination Index, Simultaneous: simultaneous exposure to LMB and drug for 72 hours, constant ratio of IC50s
Procedure: The efficacy of a combination of leptomycin B and specific chemotherapeutic co-agents was determined. The additive, synergistic, or antagonistic effect of the combination of leptomycin B and a co-agent was calculated for each administration regimen using Calcusyn software (Biosoft, Cambridge, United Kingdom). This software calculates a combination index using the following algorithm: CI=[D]1/[Dx]1+[D]2/[Dx]2 where • CI is the combination index; • [D]1 and [D]2 are the concentrations of the two agents being tested (i.e., LMB and the co-agent) that, in combination provide a response of x % in the assay; and • [Dx]1 and [Dx]2 are the concentrations of the two agents that, when used alone, produce a response of x % in the assay.
A CI value of one means the combined effect of the two agents is additive. A CI value of less than one means that the two agents act synergistically. A CI value of greater than one means that the two agents act antagonistically.
The area under the curve where the fraction affected of cells (FA) ranged from 0.2 to 0.9 was calculated, to generate average CI values as shown in Table 1 for colon cancer cell line DLD-1.
Human colon adenocarcinoma cell line, DLD-1, was obtained from American Type Culture Collection (Manassas, Va.). […] Leptomycin B was produced by fermentation of a high producing isolate from Streptomyces sp. […] LMB is also available from commercial sources, such as Sigma-Aldrich. Other anti-cancer agents were either purchased commercially (e.g., from Sigma Chemical Co. (St. Louis, Mo.) or from Sequoia Research Products (Oxford, UK)).
Cells were seeded in duplicate in 96-well microtiter plates at a density of 4,000 cells per well and allowed to attach overnight. Cells were treated with LMB and the corresponding cytotoxic drug at varying concentrations, ranging from 0.5 picomolar (“pM”) to 50 micromolar (“μM”), for 3 days. Cell viability was determined using the CellTiter-Glo luminescent cell viability assay (Promega). For the drug combination assay, cells were seeded in duplicate in 96-well plates (4,000 cells/well). […] Based on the IC50 values of each individual drug, combined drug treatment was designed at constant ratios of two drugs, i.e., equivalent to the ratio of their IC50. Three treatment schedules were used: The first schedule used simultaneous exposure to both LMB and drug for 72 hours. In the second schedule, the cells were exposed to 24 hours of LMB. The drug was then added to the cells and incubated for 48 hours. In the third schedule, cells were exposed to the drug alone for 24 hours followed by addition of LMB for 48 hours. Cell viability was determined by the CellTiter-Glo luminescent cell viability assay. Synergism, additivity, or antagonism was determined by median effect analysis using the combination index (CI) calculated using Calcusyn (Biosoft, Cambridge, UK), as described above.

| Structure (SMILES) | Combination Index, LMB First | Combination Index, Co-Agent First | Combination Index, Simultaneous |
| --- | --- | --- | --- |
| C=CCNC1=C2C[C@@H](C)C[C@H](OC)[C@H](O)[C@@H](C)/C=C(\C)[C@H](OC(N)=O)[C@@H](OC)/C=C\C=C(/C)C(=O)NC(=CC1=O)C2=O [17-AAG, 17-allylamino-17-demethoxygeldanamycin] | 1.13 ± 0.05 | 0.91 ± 0.09 | 1.15 ± 0.06 |
| CCC1(c2ccc(N)cc2)CCC(=O)NC1=O (stereo not drawn) [Aminoglutethimide, aminoglutethimide] | 0.82 ± 0.05 | 1.02 ± 0.18 | 0.89 ± 0.07 |
| CC(O)(CS(=O)(=O)c1ccc(F)cc1)C(=O)Nc1ccc(C#N)c(C(F)(F)F)c1 (stereo not drawn) [Bicalutamide, bicalutamide] | 1.48 ± 0.32 | 1.05 ± 0.02 | 1.02 ± 0.01 |
| CC(=O)O[C@@]12CO[C@@H]1C[C@H](O)[C@@]1(C)C(=O)[C@H](O)C3=C(C)[C@@H](OC(=O)[C@H](O)[C@@H](NC(=O)OC(C)(C)C)c4ccccc4)C[C@@](O)([C@@H](OC(=O)c4ccccc4)[C@H]21)C3(C)C [Docetaxel, docetaxel] | 1.06 ± 0.04 | 0.95 ± 0.07 | 1.19 ± 0.14 |
| COc1cccc2c1C(=O)c1c(O)c3c(c(O)c1C2=O)C[C@@](O)(C(=O)CO)C[C@@H]3O[C@H]1C[C@H](N)[C@H](O)[C@H](C)O1 [Doxorubicin, doxorubicin] | 0.96 ± 0.05 | 0.89 ± 0.01 | 0.84 ± 0.12 |
| C/C1=C/C[C@@H](/C(C)=C/c2csc(C)n2)OC(=O)C[C@H](O)C(C)(C)C(=O)[C@H](C)[C@@H](O)[C@@H](C)CCC1 [Epo D, epothilone D] | 1.05 ± 0.03 | 0.92 ± 0.05 | 1.06 ± 0.10 |
| Nc1ccn([C@@H]2O[C@H](CO)[C@@H](O)C2(F)F)c(=O)n1 [Gemcitabine, gemcitabine] | 1.18 ± 0.05 | 0.71 ± 0.31 | 0.97 ± 0.25 |
| CCc1c2c(nc3ccc(OC(=O)N4CCC(N5CCCCC5)CC4)cc13)-c1cc3c(c(=O)n1C2)COC(=O)[C@]3(O)CC [Irinotecan, irinotecan] | 0.77 ± 0.05 | 0.50 ± 0.001 | 0.92 ± 0.08 |
| CC[C@H](C)[C@@H](COC(Cc1ccccc1)C(=O)N[C@@H](CCS(C)(=O)=O)C(=O)OC(C)C)NC[C@@H](N)CS (stereo partly drawn) [L-744832] | 0.82 ± 0.05 | 0.86 ± 0.11 | 0.84 ± 0.09 |
| O=C(CCCCCCC(=O)Nc1ccccc1)NO [SAHA, suberoylanilide hydroxamic acid] | 0.91 ± 0.04 | 1.03 ± 0.11 | 0.88 ± 0.04 |
